The text below walks through data of US10934253B2, “Therapeutic compounds and methods” (UNIVERSITY OF TASMANIA, priority 2017, dated 2021).

The test system of data set [1] is HepG2 cells. The data set can be described thus: Acute ATP rescue assay (impaired mitochondrial function, rotenone). Format: cell-based. As to conditions: for activity at 1 µM: Homo sapiens, 1 h; for ATP rescue (in words): HepG2, rotenone, comment on Table 4. The procedure:
HepG2 cells were seeded at a density of 5000 cells per well in a 96-well plate and incubated for 24 hours in DMEM with 0.3 g/l glucose, 10% FBS and Penicillin-Streptomycin-Glutamine. Cells were treated with 1 μM quinones in presence or absence of rotenone (10 μM), for 60 minutes in glucose-free DMEM ATP levels were quantified using luminescence from the ATP-dependent enzymatic oxidation of luciferin by luciferase. Cells were lysed in a volume of 40 μl (4 mM EDTA, 0.2% Triton X-100) for five minutes at room temperature (RT) on an orbital shaker at 200 rpm. […] Luminescence was quantified immediately using a multimode plate reader (Fluoroscan Ascent, Thermo Scientific). ATP levels were standardized to protein levels using a commercial BCA assay (Protein DC; BioRad) and changes were calculated as percentage relative to levels of DMSO-treated control cells. Data is expressed as % ATP compared to the untreated (no-rotenone) control.
Vitamin K, menadione and idebenone were used as comparative controls. DMSO was used as a control.

For data set [2], the system named is HepG2 cells. The data set can be described thus: Rescue of cell viability in the presence of a mitochondrial inhibitor (rotenone 1 μM). Format: cell-based. As to conditions: for viability at 10 µM: Homo sapiens. The procedure:
(§1) Cytoprotection of HepG2 cells by naphthoquinones was quantified in the presence of the mitochondrial toxin, rotenone. Briefly, HepG2 cells were seeded in 96-well plates at 5000 cells/well in DMEM with 0.3 g/l glucose, 10% FBS and Penicillin-Streptomycin-Glutamine. After overnight incubation under standard conditions, cells were treated with the test compounds (10 μM) for 2 days before cells were challenged with 1 μM rotenone in the presence of 10 μM test compounds in Hank's balanced salt solution (HBSS) for 6 hours. This was followed by post-incubation for an additional 18 hours with only 10 μM test compounds in HBSS. For measurement of cell viability, cells were washed with 100 μL PBS twice and then lysed using 40 μL lysis solution (4 mM EDTA, 0.2% Triton X-100) for 5 min at room temperature (RT) on an orbital shaker at 200 rpm. Then 10 μL of the lysate was mixed with 90 μL of enzyme-substrate mixture (as described above) in a white 96 well plate and luminescence was measured immediately using a plate-reader (Fluoroscan Ascent, Thermo Scientific). The data is expressed as % viability compared to the untreated (no-rotenone) control.
The extent of protection of cellular viability against a rotenone challenge of representative compounds of Formula (I) is shown below in Table 5. Vitamin K, Menadione and Idebenone were used as comparative controls. DMSO was used as a control.

Data set [3] concerns HepG2 cells. Put plainly: Cell viability in the presence of a mitochondrial inhibitor (rotenone 10 μM). Format: cell-based. As to conditions: for viability at 10 µM: Homo sapiens, read-out: CELL VIABILITY [%]. The procedure: as §1
The cytoprotective effects of representative compounds of Formula (I) were further examined in vitro in response to rotenone toxicity at (10 μM). […] Cells were treated with the representative compounds of Formula (I) compounds (10 μM) for 2 days before cells were challenged with 10 μM rotenone.
Vitamin K, Menadione and Idebenone were used as comparative controls.

Data set [4] relates to HepG2 cells. The data set can be described thus: Extracellular lactate levels, enzyme-linked colorimetric assay. Type of data set: cell-based. As to conditions: HepG2 culture medium; for Extracellular lactate [% control]: 25 mM glucose, supernatant after 48 h, standardized to protein; for Effect on lactate production (in words): comment on the lactate table. The procedure: Lactate concentrations in culture medium were determined by an enzyme-linked colorimetric assay. Briefly, 150,000 HepG2 cells were seeded in normal growth media (DMEM, 10% FCS, Pen/Strep) in each well of a 6-well plate (Life Science, USA) and incubated for 24 h. The media was replaced with growth media containing (25 mM glucose,) with and without test compounds. Three untreated wells containing only cells were considered the experimental baseline control and all compounds were tested in three different wells simultaneously. Supernatants were collected after 48 h and transferred into 96-well format. After the addition of 90 μl of reaction buffer (10 mM KH2PO4 pH 7.8, 1 mg/ml BSA, 0.5 mM PMS, 2 mM EDTA, 0.6 mM DCPIP, 0.8 mM NAD+, 5 U/ml glutamate-pyruvate-transaminase, 1.5 mM glutamate, 12.5 U/ml lactate dehydrogenase) the plate was incubated at 30° C. inside a multimode plate reader (Multiscan Go, Thermo Scientific) and absorbance was measured at 600 nm over a period of 100 minutes. A standard curve was generated using media spiked with known lactate concentrations. Finally, protein levels were quantified and the lactate concentration of each well was standardized to its protein content and was then expressed as % of control.
The extent of lactate reduction in the cell culture media by the test compounds of the subject invention and the Comparative Compounds vitamin K, menadione and idebenone is shown below in Table 6.

For data set [5], the system named is LHON model induced by intravitreal rotenone in C57BL/6 mouse. Put plainly: Leber's hereditary optic neuropathy (LHON) mouse model, optomotor response. Type of data set: in vivo. As to conditions: rotenone in left eye, 200 mg/kg orally in food. The procedure:
FIG. 5: Efficacy of representative compounds of Formula (I) in leber's hereditary optic neuropathy (LHON) mouse model. LHON induced by rotenone injection in the left eye (5 μM) in C57BL/6 mouse model (Refer to Heitz, F. D et al. (2012). PLoS One., 7(9), e45182). […] Representative compounds (UTA 37 and UTA 77) and idebenone administered at 200 mg/kg over the observation period.
LHON model was induced by intravitreal injection of rotenone into the left eye in C57BL/6 mouse model as described by Heitz et al. 2012. Representative compounds (UTA 37 and UTA 77) and idebenone administered at 200 mg/kg over the observation period. Vision loss was measured by assessing number of head turns.
C57BL/6 mice (male, 8-11 weeks of age, average body weight≈25 g) were used in accordance with the Australian code for the use of animals for scientific purposes and under the required animal ethics approval from the University of Tasmania (UTAS) Animal Ethics Committee (Approval number A0016080). Animals were given at least seven days to acclimatise to the animal facility to reduce stress induced by transportation before being used for behavioural testing. All mice were supplied orally with test compounds by mixing test compounds into individual daily food portions as described previously (Heitz, F. D. et al. (2012). PLoS One., 7(9), e45182). […]

The subject of data set [6] is HepG2 cells. The data set can be described thus: ATP rescue in the presence of a mitochondrial inhibitor (rotenone 10 μM). Format: cell-based. The conditions noted are these: compounds 10 uM for 2 days, then 10 μM rotenone challenge.
Method: The extent of ATP rescue of representative compounds of Formula (I) were further examined in vitro in response to rotenone toxicity at (10 μM). […] Cells were treated with the representative compounds of Formula (I) compounds (10 μM) for 2 days before cells were challenged with 10 μM rotenone.
The mark [7] stands for this setting: HepG2, 1 μM quinones with rotenone 10 μM, 60 minutes, glucose-free DMEM, % ATP compared to untreated (no-rotenone) control.

As to `COC1=C(OC)C(=O)C(CCCCCCCCCCO)=C(C)C1=O` [Idebenone, idebenone, reference compound], the activity at 1 µM in data set [1] (setting [7]) is 81%. For the same compound, the viability at 10 µM in data set [2] (HepG2, 10 μM test compound 2 days, 1 μM rotenone challenge 6 hours, 18 hours post-incubation, % of untreated (no-rotenone) control, read-out: Viability [%]) is 66.2%; in data set [3] (48 h, HepG2, compounds 10 uM for 2 days, then 10 μM rotenone challenge), 66.2%. The “Extracellular lactate [% control]” value in data set [4] is 111.9 % control. Moreover, the “Effect on lactate production (in words)” value in data set [4] is given as “increase lactate concentrations”.
For `CC1=CC(=O)c2ccccc2C1=O` [Menadione, reference compound], the “ATP rescue (in words)” value in data set [1] is given as “no or minor effects”. This compound showed an activity at 1 µM in data set [1] (setting [7]) of 30.6%. Moreover, the viability at 10 µM in data set [2] (HepG2) amounted to 64%. The viability at 10 µM in data set [3] (HepG2, 48 h) was determined as 64%. Moreover, in data set [4], the “Extracellular lactate [% control]” value was determined as 163.3 % control and the “Effect on lactate production (in words)” value is reported as “increase lactate concentrations”.
Consider `CC1=C(CCCCCCCCCCO)C(=O)c2ccccc2C1=O` [UTA #2, 2-(10-Hydroxydecyl)-3 methyl-1,4-naphthoquinone], for which the melting point lay within 74 to 75 °C. The viability at 10 µM in data set [3] (HepG2, 48 h) worked out at 68.9%.
As to `CC1=C(CCCC(=O)N[C@@H](Cc2ccccc2)C(=O)O)C(=O)c2ccccc2C1=O` [UTA #37, (S)-2-(4-(3-methyl-1,4-naphthoquinone-2-yl)butanamido)-3-phenylpropanoic Acid], the viability at 10 µM in data set [2] (HepG2) came out at 100%; in data set [3] (HepG2, 48 h), 100%. The “Protection of visual acuity (head turns, optomotor response; in words)” value in data set [5] is “Statistically significant protection of visual acuity”.
For `CC1=C(CCCCCC(=O)O)C(=O)c2ccccc2C1=O` [UTA #70], in data set [1] (setting [7]), the activity at 1 µM is 91.8%. In addition, the viability at 10 µM in data set [3] (HepG2, 48 h) stood at 66.8%. Besides, in data set [4], the “Extracellular lactate [% control]” value is reported as 73.3 % control.
For Vitamin K [reference compound], the “ATP rescue (in words)” value in data set [1] was “no or minor effects”. The “ATP rescue [%]” value in data set [1] (setting [7]) was 3.5%. The “Protection of cell viability (in words)” value in data set [2] (HepG2, rotenone, comment on Table 5) is given as “no protective effect”. For the same compound, in data set [2] (HepG2, 10 μM test compound 2 days, 1 μM rotenone challenge 6 hours, 18 hours post-incubation, % of untreated (no-rotenone) control), the “Viability [%]” value is given as 14.5%. Also, the “CELL VIABILITY [%]” value in data set [3] (HepG2, compounds 10 uM for 2 days, then 10 μM rotenone challenge) is on record as 14.5%. Besides, in data set [6], the “% ATP RESCUE” value worked out at 3.5%. Also, in data set [4], the “Extracellular lactate [% control]” value was determined as 92.0 % control and the “Effect on lactate production (in words)” value is “slight but non-significant effect”.
